# Where two headings read alike, the source gives them in different places.
# What was measured:
# [1] = Fish toxicity test, median tolerance limit 48 hours (Test Example 1); format: in vivo, Oryzias latipes (killifish); conditions: in vivo; Oryzias latipes, 48 hours; read-out: Fish toxicity TLm48 (a)
# Method: (§1) Ten member group of Oryzias latipes (0.2-0.3 g/fish) was released in a 10-liter glass vessel containing 10 liters of a test preparation which was dissolved or suspended in "Tween 80" and diluted successively with dechlorinated tap water. After 48 hours, the dead and alive were counted to determine median tolerance limit (48 hours) [TLm48 (ppm)] value.
# [2] = system: Oryzias latipes / Nephotettix cincticeps; assay: Fish safety coefficient calculated from fish toxicity and insecticidal activity (Test Example 1); conditions: for Safety coefficient to fishes (a)/(b): TLm48 (Oryzias latipes) divided by concentration in water at LC50 for N. cincticeps
# Method: In order to make more clear the low fish toxicity and the high activity to target insects, which are charcteristic of the compounds of this invention, a fish safety coefficient was calculated from the test results of fish toxicity and insecticidal activity by the following equation and shown in Table 2. [formula]
# In the case of N. cincticeps, calculation was based on a hyothetical concentration of the test compound in water obtained by assuming that a test preparation of the active ingredient content corresponding to LC50 (ppm) was sprayed over a submerged paddy field, 5 cm in depth of water, at a rate of 100 liters per 10 ares and total active ingredient was absorbed by the water.
# For example, in the case of compound (1) of this invention, the quantity of water per 10 ares of the submerged paddy field, 5 cm in depth of water, is 50 tons. If a preparation of the active ingredient content equivalent to LC50 (ppm) of the compound (1) is sprayed at a rate of 100 liters per 10 ares, the concentration of the compound (1) in the water is 0.007 ppm. The fish toxicity [TLm48 ] of the compound (1) is 6.0 ppm. The fish safety coefficient (857.1) is obtained by dividing 6.0 by 0.007.
# [3] = system: R-type Nephotettix cincticeps; assay: Insecticidal activity test, activity to Nephotettix cincticeps (Test Example 1); format: in vivo
# Method: 2. Insecticidal activity test.
# Test emulsion preparations were prepared in the same manner as in Formulation Example 1.
# Activity to Nephotettix cinciticips
# The test insect was resistant to carbamates (hereinafter referred to as R-type). The active ingredient content of test preparation was varied in 4 levels within the range of 500 to 1 ppm. The test preparation was sprayed over 180-ml plastic cups grown with rice plant one-month old from sowing and placed on a turn table, the application rate having been 15 cc/2 cups. After air drying, the plant was covered with a wire-screen cage. A group of 15 female adults of R-type Nephotettix cincticeps was released in each cage and kept at 26° C. in an artificial climate condition. After 24 hours, the dead and alive were observed. The median lethal concentration [LC50 (ppm)] was calculated from the mortality determined by 3-repetition test.
# [4] = system: R-type Nephotettix cincticeps; assay: Mortality by isomer mixtures on rice plant (Test Example 2); format: in vivo; conditions: 10 ppm active ingredient, 24 hours
# Text: The present compound (1) and (2) were mixed in a predetermined proportion, formulated into an emulsifiable concentrate according to Formulation Example 1 and diluted with water so that the amount of active ingredient was 10 ppm.
# The test preparation was sprayed over rice plant in tillering stage planted in a 1/10,000 are Wagner pot, at a rate of 15 cc per pot. After airdrying, the plant was covered with a wire-screen cage into which were released 15 female adults of R-type Nephotettix cincticeps. The pot was kept at 26° C. in an artificial climate condition. After 24 hours, the dead and alive were observed and the mortality was obtained by 3-repetition test.
# [5] = Oral toxicity test (Test Example 10); conditions: in vivo, male mouse, corn oil
# Method: The present compound (1) was dissolved or suspended in a corn oil, and the resulting solution was orally administered to a male mouse (18 to 22 g) at a rate of 0.2 ml/10 g body weight. After 24 hours, the mortality was examined to obtain the median lethal dose (LD50 mg/kg).
# [6] = Toxicity to carps (Test Example 12); format: in vivo; conditions: carp, dechlorinated tap water, read-out: TLm48
# Method: (§2) The dust of the present compound (1) prepared in Formulation Example 2 was diluted with dechlorinated tap water to a predetermined concentration of active ingredient. Ten liters of the test solution was placed in a 10-liter glass vessel, and 10 killifishes (Oryzias latipes) were liberated therein. After 48 hours, the dead and alive were examined, and TLm48 (ppm) was calculated from the concentration of active ingredient.
# Toxicity to carps was tested according to the test method for toxicity to fishes described in Test Example 11, and TLm48 (ppm) values after 48 hours were obtained.
# [7] = system: third instar larvae of rice stem borer (Chilo suppressalis); assay: Rice seedling dipping test, rice stem borer (Test Example 6); format: in vivo; conditions: 240 h, 10 days, read-out: larvae killed
# Method: The emulsifiable concentrate of the present compound (1) prepared in Formulation Example 1 was diluted with water so that the concentration of active ingredient was 500 ppm. Five rice seedlings which had elapsed 10 days after sowing were dipped in the dilute solution and air-dried. The rice seedlings and 10 third instar larvae of rice stem borer (Chilo suppressalis) were placed in a plastic cup (diameter 5.5 cm, height 3.5 cm) which was then placed in an artificial climate chamber kept at 26° C.
# Oryzias latipes = assay: Fish toxicity test, median tolerance limit 48 hours (Test Example 1); format: in vivo, Oryzias latipes (killifish); conditions: killifish, in words
# Method: as §1
# [8] = system: green rice leafhopper (Nephotettix cincticeps); assay: Model paddy field box test, green rice leafhopper (Test Example 13); format: in vivo; conditions: wettable powder, 100 ppm, 100 liter/10 are, after 48 hours
# Method: (§3) The wettable powder of the present compound (1) prepared in Formulation Example 3 was diluted with water so that the concentration of active ingredient was 100 ppm. Soil was placed in a plastic box [5m×5m×2m (deep)] to a level of 50 cm from the bottom, and rice plants about 50 cm high were transplanted at intervals of 50 cm. Water was then placed in the bos so that water depth was 5 cm, and 20 killifishes (Oryzias latipes) were liberated therein. Thereafter, the above dilute solution was sprayed on the box at a rate of 100 liter/10 are. The solution fell on the rice plants as well as on the water surface.
# (§4) One hour after treatment, 100 female adults of green rice leafhopper (Nephotettix cincticeps) were liberated in the box which was immediately covered with a net.
# [9] = system: carmine mites (Tetranychus cinnabarinus); assay: Acaricidal test on rice plants, carmine mites (Test Example 8); format: in vivo; conditions: 500 ppm, after 10 days
# Method: The emulsifiable concentrate of the present compound (1) prepared in Formulation Example 1 was diluted with water so that the concentration of active ingredient was 500 ppm. The dilute solution was then thoroughly sprayed on rice plants (grown in a 1/10,000 are Wagner's pot) on which carmine mites (Tetranychus cinnabarinus) in all stages were made parasitic.
# [10] = system: green rice leafhopper (Nephotettix cincticeps); assay: Residual effect test (Test Example 9); format: in vivo; conditions: 400 ppm, 24 hours
# Method: The emulsifiable concentrate of the present compound (1) prepared in Formulation Example 1 was diluted with water so that the concentration of active ingredient was 400 ppm. Thereafter, 20 cc of the dilute solution was sprayed on rice plants grown in a 1/10,000 are Wagner's pot. The rice plants were air-dried and covered with a wire-screen cage, and 15 female adults of green rice leafhopper (Nephotettix cincticeps) were liberated therein. After 24 hours, the dead and alive were examined to obtain mortality. In order to examine the residual effect, the pot was then left as it was for 7 days, and the test insects were liberated in the same manner as above. After 24 hours, the mortality was examined. The experiment was carried out in a greenhouse and the number of repetitions was three.
# Laodelphax striatellus = assay: Insecticidal activity, Laodelphax striatellus (Test Example 4); format: in vivo; conditions: Laodelphax striatellus female adults, 24 hours, 26° C.
# Method: The emulsion preparation containing the compound (1) of this invention, described in Formulation Example 1, was diluted with water. The active ingredient content of the test prepartion was varied in 4 levels within the range of 150 to 10 ppm. The test preparation was sprayed over 180 ml plastic cups grown with rice plant and placed on a turn table the application rate having been 15 cc/2 cups. After air drying, the plant was covered with a wire-screen cage. A group of 15 female adults of Laodelphax striatellus was released in each cage and kept at 26° C. in an artificial climate condition. After 24 hours, the dead and alive were observed. The median lethal concentration [LC50 (ppm)] was calculated from the mortality determined by 3-repetition test.
# [11] = system: full grown larvae of Aedes aegypty (Culex pipiens pallens); assay: Mosquito larvae test (Test Example 7); format: in vivo; conditions: 24 hours, read-out: larvae killed
# Method: The emulsifiable concentrate of the present compound (1) prepared in Preparation example 1 was diluted with distilled water so that the concentration of active ingredient was 0.1 ppm. One hundred milliliters of the dilute solution was placed in a 180-ml plastic cup, and 30 full grown larvae of Aedes aegypty (Culex pipiens pallens) were liberated therein. After 24 hours, 100% of the larvae could be killed.
# [12] = system: killifishes (Oryzias latipes); assay: Model paddy field box test, killifishes (Test Example 13); format: in vivo; conditions: wettable powder, 100 ppm, 100 liter/10 are, water depth 5 cm, after 48 hours
# Method: as §3, §4
# [13] = system: WHO strain housefly female adults (Musca domestica); assay: Topical application to housefly (Test Example 5); format: in vivo; conditions: 24 hours
# Method: The present compound (1) was diluted with acetone to four different concentrations.
# The acetone dilute solution was topically applied to the ventral thorax of WHO strain housefly female adults (Musca domestica), at a rate of 0.5 μl/adult by means of a microsyringe.
# The adults were then liberated in a plastic cup of 12 cm in diameter and given a 1% sugar water. After 24 hours, the dead and alive were examined. The median lethal does (LD50 μg/adult) was obtained from the mortality of 50 adults per group.
# [14] = Fish toxicity of dust, killifishes (Test Example 11); format: in vivo; conditions: dechlorinated tap water, dust of Formulation Example 2, Oryzias latipes, read-out: TLm48
# Method: as §2
# [15] = R-type (carbamate-resistant) Nephotettix cincticeps female adults, 24 hours, 26° C., read-out: LC50
Compound,LC50 at 48 h [1],Safety coefficient to fishes (a)/(b) [2],"LC50 [3, 15]",LD50 at 24 h [5],other results
"CC1(C)C(C=C(Cl)Cl)C1C(=O)OC(C#N)c1cccc(Oc2ccc(Br)cc2)c1 (racemic) [(A), m-(p-bromophenoxy)-α-cyanobenzyl dl-cis, trans-2,2-dimethyl-3-(2,2-dichlorovinyl)cyclopropanecarboxylate]",0.9 µg/mL,56.3,8 µg/mL,–,–
"CC(C)=CC1C(C(=O)OCc2cccc(Oc3ccccc3)c2)C1(C)C (racemic) [(B), m-phenoxybenzyl dl-cis,trans chrysanthemate]",–,–,–,–,mortality at 10 ppm [4]: 10%
"CC1(C)C(C=C(Cl)Cl)C1C(=O)OCc1cccc(Oc2ccccc2)c1 (racemic) [(C), m-phenoxybenzyl dl-cis,trans-2,2-dimethyl-3-(2,2-dichlorovinyl)cyclopropanecarboxylate]",0.027 µg/mL,0.8,18 µg/mL,650 mg/kg,–
"CC1(C)C(C=C(Cl)Cl)C1C(=O)OC(C#N)c1cccc(Oc2ccc(F)cc2)c1 (racemic) [(E), m-(p-fluorophenoxy)-α-cyanobenzyl dl-cis,trans-2,2-dimethyl-3-(2,2-dichlorovinyl)cyclopropanecarboxylate]",0.003 µg/mL,0.3,5 µg/mL,300 mg/kg,–
"CC1(C)C(C=C(Cl)Cl)C1C(=O)OC(C#N)c1cccc(Oc2ccccc2)c1 (racemic) [Reference compound (D), m-phenoxy-α-cyanobenzyl dl-cis,trans-2,2-dimethyl-3-(2,2-dichlorovinyl)-cyclopropanecarboxylate]",0.026 µg/mL,2.6,5 µg/mL,112 mg/kg,LC50 at 48 h [6]: ≤ 0.01 µg/mL
"CC1(C)[C@H](C=C(Cl)Cl)[C@H]1C(=O)OC(C#N)c1cccc(Oc2ccc(Br)cc2)c1 (relative stereo) [Compound (1), m-(p-bromophenoxy)-α-cyanobenzyl dl-trans-2,2-dimethyl-3-(2,2-dichlorovinyl)cyclopropanecarboxylate]",6 µg/mL,857.1,3.5 µg/mL,> 2000 mg/kg,"mortality at 500 ppm [7]: 100%; toxicity to killifish compared with reference compounds (Oryzias latipes): lower in toxicity to killifish than the reference compounds (A), (C), (D) and (E); green rice leafhoppers found [8]: no green rice leafhoppers were found; degree of damage by the carmine mites [9]: the spreading of damage could be prevented; LC50 at 48 h [6]: > 10 µg/mL; Mortality (%), effect immediately after treatment [10]: 100%; Mortality (%), effect 7 days after treatment ([10]; insects liberated 7 days after treatment): 100%; safety coefficient to fishes compared with reference compounds ([2]; in words): shows a very high value as compared with that of the reference compounds; LC50 (Laodelphax striatellus): 70 µg/mL; mortality at 0.1 ppm [11]: 100%; survival of killifishes [12]: all of the killifishes were alive; LD50 [13]: 0.035 μg/adult; LC50 at 48 h [14]: > 10 µg/mL; insecticidal activity compared with reference compounds ([3]; Nephotettix cincticeps, in words): higher in insecticidal activity than the reference compounds (A), (C) and (F)"
CNC(=O)Oc1ccc(C)c(C)c1 [(F)],11.9 µg/mL,17.0,–,60 mg/kg,"LC50 ([3]; Nephotettix cincticeps, 24 h): 350 µg/mL"
